# Test results published in patent US10428081B2, “EGFR inhibitor, preparation method and use thereof” (Shanghai Hansoh Biomedical Co., Ltd., priority 2014, dated 2019).
# Columns and labels:
# [1] = molecular target: exon 20 T790M mutant-type EGFR enzyme (Homo sapiens, UniProt P00533, T790M); experiment: Enzymologic experiment of T790M mutant-type EGFR (TR-FRET); type: biochemical; conditions: for IC50: T790M EGFR enzyme, TR-FRET, ATP 1 to 10 uM; for Selectivity of wild-type/mutant-type: ratio WT IC50 / T790M IC50, enzyme
# Method: (§1) 2) 1 to 5 μL of diluted solution in gradient of the compound was added.
# (§2) 3) The mixture was incubated for 10 minutes at room temperature.
# (§3) 6) 5 μL of EDTA stop solution was added to terminate the reaction for 5 minutes.
# 7) […] of a test solution containing the labeled antibody was added, and the mixture was incubated at room temperature for 1 hour.
# 9) The inhibition rates were calculated according to the fluorescence signal values.
# (§4) 10) The IC50 of the compound was obtained by curve fitting according to the inhibition rates at different concentrations.
# wild-type EGFR enzyme = wild-type EGFR enzyme (Homo sapiens, UniProt P00533); experiment: Enzymologic experiment of wild-type (WT) EGFR (TR-FRET); type: biochemical; conditions: ATP 0.1 to 5 uM
# Method: 2. Enzymologic Experiment of Wild-Type (WT) EGFR
# In this experiment, the inhibitory effect of compounds on wild-type EGFR enzyme was tested by a fluorescence resonance energy transfer (TR-FRET) method, and the half maximal inhibitory concentration IC50 of the compounds on enzymatic activity was determined.
# 1) 1 to 5 μL of wild-type EGFR enzyme solution was added to a 384-well plate, and the final concentration of the enzyme was 0.1 to 1 nM.
# as §1, §2, §3
# 7) 5 μL of a test solution containing the labeled antibody was added, and the mixture was incubated at room temperature for 1 hour.
# 9) The inhibition rates were calculated from the fluorescence signal values.
# as §4
# NCI-H1975 cells = experiment: Inhibition of NCI-H1975 cell proliferation (CellTiter-Glo); type: cell-based; conditions: Homo sapiens, NCI-H1975, 72 h, NCI-H1975 cell proliferation, 72 hours, CellTiter-Glo; read-out: EGFR IC50 (nM) H1975
# Method: 3. Experiment on the Inhibition of NCI-H1975 Cell Proliferation
# In this experiment, the inhibitory effect of the compounds on NCI-H1975 cell proliferation was tested by a CellTiter-Glo method, and the half maximal inhibitory concentration (IC50) of the compounds on the activity of cell proliferation was determined.
# The culture plate was incubated in an incubator for 16 to 24 hours (37° C., 5% CO2).
# 2) Different concentrations of the test compound in a gradient dilution were added to the cells in the culture plate. The culture plate was incubated in an incubator for 72 hours (37° C., 5% CO2).
# 3) 50 to 100 μL of CellTiter-Glo reagent was added to each well. Then, the culture plate was shaken for 10 minutes, and left to stand at room temperature for 10 minutes.
# 4) The chemiluminescence signal values of each plate were determined by a microplate reader.
# 5) The inhibition rates were calculated according to the chemiluminescence signal values.
# 6) The IC50 of the compound was obtained by curve fitting according to the inhibition rates at different concentrations.
# Sequence of exon 20 T790M mutant-type EGFR enzyme (P00533 25-1210 T790M): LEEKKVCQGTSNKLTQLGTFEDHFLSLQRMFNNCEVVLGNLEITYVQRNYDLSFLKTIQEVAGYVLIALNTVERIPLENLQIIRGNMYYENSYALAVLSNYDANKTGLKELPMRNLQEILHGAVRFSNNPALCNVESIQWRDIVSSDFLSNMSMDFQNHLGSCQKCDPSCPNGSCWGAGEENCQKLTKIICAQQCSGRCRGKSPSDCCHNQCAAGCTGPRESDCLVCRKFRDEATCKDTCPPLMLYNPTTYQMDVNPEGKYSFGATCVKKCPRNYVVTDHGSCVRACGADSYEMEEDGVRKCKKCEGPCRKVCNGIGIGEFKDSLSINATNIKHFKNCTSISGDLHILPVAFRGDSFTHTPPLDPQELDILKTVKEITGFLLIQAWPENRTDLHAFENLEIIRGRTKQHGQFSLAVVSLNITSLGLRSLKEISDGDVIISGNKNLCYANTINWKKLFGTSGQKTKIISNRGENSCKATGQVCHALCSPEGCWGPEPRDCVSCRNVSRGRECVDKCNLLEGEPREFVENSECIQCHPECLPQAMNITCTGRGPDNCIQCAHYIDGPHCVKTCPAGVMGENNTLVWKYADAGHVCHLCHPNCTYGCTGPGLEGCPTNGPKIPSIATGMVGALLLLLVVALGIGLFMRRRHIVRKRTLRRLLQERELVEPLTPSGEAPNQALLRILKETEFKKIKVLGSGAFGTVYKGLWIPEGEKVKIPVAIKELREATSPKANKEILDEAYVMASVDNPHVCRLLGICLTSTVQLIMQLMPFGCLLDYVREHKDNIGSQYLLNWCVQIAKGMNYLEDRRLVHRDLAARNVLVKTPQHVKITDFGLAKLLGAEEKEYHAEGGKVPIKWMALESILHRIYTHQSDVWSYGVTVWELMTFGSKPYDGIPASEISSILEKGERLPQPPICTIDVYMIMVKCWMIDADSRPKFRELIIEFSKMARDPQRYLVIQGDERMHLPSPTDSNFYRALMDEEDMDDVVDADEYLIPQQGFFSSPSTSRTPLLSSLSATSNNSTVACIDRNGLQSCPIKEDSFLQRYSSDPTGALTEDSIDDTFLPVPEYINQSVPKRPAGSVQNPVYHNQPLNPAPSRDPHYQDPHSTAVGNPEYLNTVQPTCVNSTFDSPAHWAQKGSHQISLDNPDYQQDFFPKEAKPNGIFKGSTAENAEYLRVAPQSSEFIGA
# Sequence of wild-type EGFR enzyme (P00533 25-1210): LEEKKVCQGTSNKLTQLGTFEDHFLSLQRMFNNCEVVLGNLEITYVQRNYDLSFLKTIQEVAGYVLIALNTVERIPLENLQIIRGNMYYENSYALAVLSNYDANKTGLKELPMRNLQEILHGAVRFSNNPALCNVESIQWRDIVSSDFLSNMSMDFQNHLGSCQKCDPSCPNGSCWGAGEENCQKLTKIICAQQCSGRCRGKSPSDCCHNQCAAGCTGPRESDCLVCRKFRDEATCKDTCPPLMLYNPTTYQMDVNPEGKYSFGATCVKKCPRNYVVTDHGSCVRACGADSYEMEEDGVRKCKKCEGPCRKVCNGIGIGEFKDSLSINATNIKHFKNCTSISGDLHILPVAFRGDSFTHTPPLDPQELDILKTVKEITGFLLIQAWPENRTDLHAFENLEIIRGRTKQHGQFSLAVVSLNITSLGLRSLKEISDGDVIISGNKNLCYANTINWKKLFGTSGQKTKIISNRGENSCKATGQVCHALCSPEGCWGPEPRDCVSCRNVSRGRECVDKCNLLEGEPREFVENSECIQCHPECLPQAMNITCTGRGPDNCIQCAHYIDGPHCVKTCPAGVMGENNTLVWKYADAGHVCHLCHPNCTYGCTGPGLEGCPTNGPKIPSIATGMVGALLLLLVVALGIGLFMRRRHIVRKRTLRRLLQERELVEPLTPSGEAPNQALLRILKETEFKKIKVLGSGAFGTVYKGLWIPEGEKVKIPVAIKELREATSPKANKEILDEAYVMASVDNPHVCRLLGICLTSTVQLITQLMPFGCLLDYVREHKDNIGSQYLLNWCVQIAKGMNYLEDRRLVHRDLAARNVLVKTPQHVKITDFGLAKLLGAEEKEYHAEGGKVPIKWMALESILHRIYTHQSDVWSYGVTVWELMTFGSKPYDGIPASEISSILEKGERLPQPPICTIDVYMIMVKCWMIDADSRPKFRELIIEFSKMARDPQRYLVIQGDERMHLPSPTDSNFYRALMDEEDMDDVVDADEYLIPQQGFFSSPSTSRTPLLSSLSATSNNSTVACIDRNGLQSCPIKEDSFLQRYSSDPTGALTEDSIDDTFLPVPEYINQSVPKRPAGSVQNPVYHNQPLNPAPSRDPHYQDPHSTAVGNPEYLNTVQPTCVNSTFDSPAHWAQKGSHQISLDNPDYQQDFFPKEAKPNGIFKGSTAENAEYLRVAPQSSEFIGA
IC50 [1],Selectivity of wild-type/mutant-type [1],IC50 (wild-type EGFR enzyme),IC50 (NCI-H1975 cells),SMILES
0.15 nM,13,2 nM,–,"C=CC(=O)Nc1cc(Nc2nccc(-c3cn(C)c4ccccc34)n2)c(OC(F)F)cc1N(C)CCN(C)C [Example 1, N-(4-(difluoromethoxy)-2-((2-(dimethylamino)ethyl)(methyl)amino)-5-((4-(1-methyl-1H-indol-3-yl)pyrimidin-2-yl)amino)phenyl)acrylamide]"
144 nM,–,–,–,"C=CC(=O)Nc1cc(Nc2nccc(-c3cn(C)c4ccccc34)n2)c(OC(F)F)cc1N(C)CCN1CCOCC1=O [Example 3, N-(4-(difluoromethoxy)-2-(methyl(2-(3-carbonylmorpholino)ethyl)amino)-5-((4-(1-methyl-1H-indol-3-yl)pyrimidin-2-yl)amino)phenyl)acrylamide]"
2.74 nM,23.39,64.1 nM,24.6 nM,"C=CC(=O)Nc1cc(Nc2nccc(-c3cn(C)c4cc(P(C)(C)=O)ccc34)n2)c(OC(F)F)cc1N(C)CCN(C)C [Example 11, N-(4-(difluoromethoxy)-2-((2-(dimethylamino)ethyl)(methyl)amino)-5-((4-(6-(dimethylphosphoryl)-1-methyl-1H-indol-3-yl)pyrimidin-2-yl)amino)phenyl)acrylamide]"
0.32 nM,18.7,6.01 nM,–,"C=CC(=O)Nc1cc(Nc2nccc(-c3cn(C4CC4)c4ccccc34)n2)c(OC(F)F)cc1N(C)CCN(C)C [Example 12, N-(5-((4-(1-cyclopropyl-1H-indol-3-yl)pyrimidin-2-yl)amino)-4-(difluoromethoxy)-2-((2-(dimethylamino)ethyl)(methyl)amino)phenyl)acrylamide]"
2.75 nM,–,–,46.8 nM,"C=CC(=O)Nc1cc(Nc2nccc(-c3cn(C)c4ccc(C5CC5)cc34)n2)c(OC)cc1N(C)CCN(C)C [Example 23, N-(5-((4-(5-cyclopropyl-1-methyl-1H-indol-3-yl)pyrimidin-2-yl)amino)-2-((2-(dimethylamino)ethyl)(methyl)amino)-4-methoxyphenyl)acrylamide]"
50.2 nM,–,–,–,"C=CC(=O)Nc1cc(Nc2nccc(-c3cn(C)c4ccccc34)n2)c(OC)cc1N1CC2(COC2)C1 [Example 27, N-(4-methoxy-5-((4-(1-methyl-1H-indol-3-yl)pyrimidin-2-yl)amino)-2-(2-oxa-6-azaspiro[3,3]heptan-6-yl)phenyl)acrylamide]"
16.5 nM,–,–,–,"C=CC(=O)Nc1cc(Nc2nccc(-c3cn(C)c4cc(F)cc(F)c34)n2)c(OC)cc1N(C)CCN(C)C [Example 29, N-(5-((4-(4,6-difluoro-1-methyl-1H-indol-3-yl)pyrimidin-2-yl)amino)-2-((2-(dimethylamino)ethyl)(methyl)amino)-4-methoxyphenyl)acrylamide]"
0.38 nM,9.8,3.77 nM,–,"C=CC(=O)Nc1cc(Nc2nccc(-n3ncc4cc(OC)ccc43)n2)c(OC)cc1N(C)CCN(C)C [Example 43, N-(2-((2-(dimethylamino)ethyl)(methyl)amino)-4-methoxy-5-((4-(5-methoxy-1H-indazol-1-yl)pyrimidin-2-yl)amino)phenyl)acrylamide]"
41.4 nM,–,–,–,"C=CC(=O)Nc1cc(Nc2nccc(-n3ncc4cc(C5CC5)ccc43)n2)c(OC)cc1N(C)CCN(C)C [Example 47, N-(5-((4-(5-cyclopropyl-1H-indazol-1-yl)pyrimidin-2-yl)amino)-2-((2-(dimethylamino)ethyl)(methyl)amino)-4-methoxyphenyl)acrylamide]"
1.08 nM,107.1,116 nM,4.52 nM,"C=CC(=O)Nc1cc(Nc2ncc(C(F)(F)F)c(-n3ncc4cc(C#N)ccc43)n2)c(OC)cc1N(C)CCN(C)C [Example 52, N-(5-((4-(5-cyano-1H-indazol-1-yl)-5-(trifluoromethyl)pyrimidin-2-yl)amino)-2-((2-(dimethylamino)ethyl)(methyl)amino)-4-methoxyphenyl)acrylamide]"
0.35 nM,12.7,4.44 nM,–,"C=CC(=O)Nc1cc(Nc2nccc(-n3cnc4cc(OC)ccc43)n2)c(OC)cc1N(C)CCN(C)C [Example 59, N-(2-((2-(dimethylamino)ethyl)(methyl)amino)-4-methoxy-5-((4-(5-methoxy-1H-benzo[d]imidazol-1-yl)pyrimidin-2-yl)amino)phenyl)acrylamide]"
8.32 nM,3.18,26.4 nM,26.3 nM,"C=CC(=O)Nc1cc(Nc2nccc(-n3cnc4ccc(C#N)cc43)n2)c(OC)cc1N(C)CCN(C)C [Example 62, N-(5-((4-(6-cyano-1H-benzo[d]imidazol-1-yl)pyrimidin-2-yl)amino)-2-((2-(dimethylamino)ethyl)(methyl)amino)-4-methoxyphenyl)acrylamide]"
0.99 nM,193.03,191 nM,–,"C=CC(=O)Nc1cc(Nc2ncc(C(F)(F)F)c(-n3cnc4ccc(OC)cc43)n2)c(OC)cc1N(C)CCN(C)C [Example 68, N-(2-((2-(dimethylamino)ethyl)(methyl)amino)-4-methoxy-5-((4-(6-methoxy-1H-benzo[d]imidazol-1-yl)-5-(trifluoromethyl)pyrimidin-2-yl)amino)phenyl)acrylamide]"
28.1 nM,–,–,–,"C=CC(=O)Nc1cc(Nc2nccc(-n3c(C)nc4cc(OC)ccc43)n2)c(OC)cc1N(C)CCN(C)C [Example 71, N-(2-((2-(dimethylamino)ethyl)(methyl)amino)-4-methoxy-5-((4-(5-methoxy-2-methyl-1H-benzo[d]imidazol-1-yl)pyrimidin-2-yl)amino)phenyl)acrylamide]"
26 nM,–,–,–,"C=CC(=O)Nc1cc(Nc2nccc(-n3c(C)nc4ccc(C#N)cc43)n2)c(OC)cc1N(C)CCN(C)C [Example 74, N-(5-((4-(6-cyano-2-methyl-1H-benzo[d]imidazol-1-yl)pyrimidin-2-yl)amino)-2-((2-(dimethylamino)ethyl)(methyl)amino)-4-methoxyphenyl)acrylamide]"
8.57 nM,4.04,34.6 nM,112 nM,"C=CC(=O)Nc1cc(Nc2nccc(-c3cn(C)c4c(F)cc(F)cc34)n2)c(OC)cc1N(C)CCN(C)C [Example 89, N-(5-((4-(5,7-difluoro-1-methyl-1H-indol-3-yl)pyrimidin-2-yl)amino)-2-((2-(dimethylamino)ethyl)(methyl)amino)-4-methoxyphenyl)acrylamide]"
1.33 nM,89.47,119 nM,–,"C=CC(=O)Nc1cc(Nc2ncc(Cl)c(-n3nc(OC)c4cc(Cl)ccc43)n2)c(OC)cc1N(C)CCN(C)C [Example 108, N-(5-((5-chloro-4-(5-chloro-3-methoxy-1H-indazol-1-yl)pyrimidin-2-yl)amino)-2-((2-(dimethylamino)ethyl)(methyl)amino)-4-methoxyphenyl)acrylamide]"
5.18 nM,74.79,387 nM,–,"C=CC(=O)Nc1cc(Nc2ncc(C(F)(F)F)c(-n3nc(OC)c4cc(Cl)ccc43)n2)c(OC)cc1N(C)CCN(C)C [Example 109, N-(5-((4-(5-chloro-3-methoxy-1H-indazol-1-yl)-5-(trifluoromethyl)pyrimidin-2-yl)amino)-2-((2-(dimethylamino)ethyl)(methyl)amino)-4-methoxyphenyl)acrylamide]"
1.06 nM,9.10,9.65 nM,–,"C=CC(=O)Nc1cc(Nc2nccc(-n3nc(OC)c4cc(Cl)ccc43)n2)c(OC)cc1N(C)CCN(C)C [Example 110, N-(5-((4-(5-chloro-3-methoxy-1H-indazol-1-yl)pyrimidin-2-yl)amino)-2-((2-(dimethylamino)ethyl)(methyl)amino)-4-methoxyphenyl)acrylamide]"
0.8 nM,24.45,19.6 nM,–,"C=CC(=O)Nc1cc(Nc2ncc(Cl)c(-n3nc(CCC)c4cc(C#N)ccc43)n2)c(OC)cc1N(C)CCN(C)C [Example 116, N-(5-((5-chloro-4-(5-cyano-3-propyl-1H-indazol-1-yl)pyrimidin-2-yl)amino)-2-((2-(dimethylamino)ethyl)(methyl)amino)-4-methoxyphenyl)acrylamide]"
